Consider 10 molecules from EP4389746A2, “P2X3 RECEPTOR ANTAGONISTS” (Recordati Industria Chimica E Farmaceutica SPA, priority 2022, dated 2024).

One assay deals with T1, human P2X3 receptor (Homo sapiens, UniProt P56373).
T1 construct: expressed in transfected cells; host or cells: CHO-K1
T1 sequence (P56373 1-397): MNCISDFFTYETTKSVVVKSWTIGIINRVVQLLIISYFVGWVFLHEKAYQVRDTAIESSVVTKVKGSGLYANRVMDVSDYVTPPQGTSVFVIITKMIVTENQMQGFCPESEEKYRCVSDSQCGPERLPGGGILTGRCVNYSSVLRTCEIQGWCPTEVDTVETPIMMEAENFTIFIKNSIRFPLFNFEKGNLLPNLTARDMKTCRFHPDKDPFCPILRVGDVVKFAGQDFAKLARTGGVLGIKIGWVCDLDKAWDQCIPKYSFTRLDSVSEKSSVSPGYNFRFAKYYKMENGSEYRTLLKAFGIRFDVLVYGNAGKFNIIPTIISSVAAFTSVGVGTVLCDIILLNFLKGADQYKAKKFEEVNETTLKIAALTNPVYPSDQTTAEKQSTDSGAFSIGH
The assay can be described thus: Calcium luminescence measurement: human P2X3 receptor activity inhibition (CHO-K1 cells, photoprotein readout, FLEXSTATION). The assay is classed as cell-based. The conditions noted are these: CHO-K1 cells co-expressing human P2X3 and Ca2+ sensitive photoprotein; agonist α,β-Met-ATP; read-out: h-P2X3 IC50. As to the method:
Determination of human P2X3 receptor activity inhibition
The assay for the human purinergic P2RX3 receptor has been adapted to the internal screening instrumentation using the FLEXSTATION as reader and a photoprotein as luminescent readout. The assay consists of CHO-K1 cells recombinantly co-expressing the human P2rx3 receptor and a Ca^2+ sensitive photoprotein. Cells are maintained in DMEM F-12 (1:1) mixture (LONZA cat. n° BE04-687F/U1) supplemented with 9 mL of 100 mM Sodium Pyruvate (LONZA cat. n° BE13-115E), 29 mL of 7.5% Sodium Bicarbonate (LONZA cat. n° BE17-613E), 5.5 mL of 1 M Hepes (LONZA cat. n° BE17-737E), 5 mL of 100X Penicillin/Streptomycin mixture (LONZA cat. n° DE17-602E) and 50 mL of Fetal Bovine Serum (Sigma cat. n° F7524), 1 mg/mL G418 disulfate salt (Sigma cat. n° G8168) and 5 µg/ml Puromycin dihydrochloride (Sigma cat. n° P9620). Standard propagation conditions consist of seeding in a P75 flask twice a week, recovering about 20×10^6 cells, corresponding to about 80% confluency. Cells were seeded into black-walled clear bottom 96 well plates at a density of 40000 cells/well in a complete medium. After 24 h the culture medium was replaced with 200 µL/well of coelenterazine in Tyrode's buffer (Standard Tyrode's buffer: in house solution, 130 mM NaCl, 5 mM KCl, 2 mM CaCl2, 5 mM NaHCO3, 1 mM MgCl2, 20 mM HEPES, pH 7.4). Coelenterazine was purchased from BIOSYNTH (cat. n° C-7001). 10 mM stock solution was prepared in DMSO and glutathione and stored at -20° C. The plates were incubated for 4 hours at 37°C, and injected with 10 µL/well of test compounds at 25X concentration in Tyrode's buffer. After 4 minutes a second injection of 50 µL/well of 5X α,β-Met-ATP in Tyrode's buffer (α,β-Met-ATP: from Tocris (cat. n° 3209), was dissolved at 100 mM in water and stored in aliquots at -20°C) was performed and the signal of the emitted luminescence was recorded by FLEXSTATION III (Molecular Devices). […]
The inhibition curves of the tested compounds at cloned P2X3 receptor were determined by nonlinear regression analysis using software Prism 5.0 (Graphpad, San Diego, CA). The IC50 values and pseudo-Hill slope coefficients were estimated by the program.

In another assay the target is T2, human P2X2/3 receptor (Homo sapiens, UniProt P56373+Q9UBL9).
T2 construct: expressed in transfected cells; host or cells: CHO-K1
T2 sequence (P56373 1-397): T1 sequence (P56373 1-397)
T2 sequence (Q9UBL9 1-471): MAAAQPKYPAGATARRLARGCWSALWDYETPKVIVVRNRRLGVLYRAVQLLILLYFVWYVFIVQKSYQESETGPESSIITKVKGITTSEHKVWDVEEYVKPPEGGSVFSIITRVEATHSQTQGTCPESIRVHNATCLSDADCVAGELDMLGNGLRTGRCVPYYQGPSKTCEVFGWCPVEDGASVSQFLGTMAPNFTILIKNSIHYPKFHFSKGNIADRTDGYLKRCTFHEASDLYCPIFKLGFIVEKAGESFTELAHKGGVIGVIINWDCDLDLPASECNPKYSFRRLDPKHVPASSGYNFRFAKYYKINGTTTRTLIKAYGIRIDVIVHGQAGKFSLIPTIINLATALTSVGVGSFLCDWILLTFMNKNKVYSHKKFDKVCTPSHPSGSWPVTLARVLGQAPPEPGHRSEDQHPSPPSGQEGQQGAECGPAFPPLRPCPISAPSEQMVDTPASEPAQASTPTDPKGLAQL
The assay can be described thus: Calcium fluorescence measurement: human P2X2/3 receptor activity inhibition (CHO-K1 cells, Fluo-8 NoWash, […]). The assay is classed as cell-based. The conditions noted are these: for IC50: CHO-K1 cells expressing human P2RX2/X3 channel, 10µM α,β-Met-ATP, read-out: h-P2X2/3 IC50; for Selectivity: ratio of IC50 of P2X2/3/ P2X3 receptors. Here is the method: Determination of human P2X2/3 receptor activity inhibition
The assay for the human P2RX2/X3 has been evaluated by the screening instrumentation using the […] as reader and the FLUO8-NoWash dye as fluorescent readout for calcium detection.
CHO-K1 cells recombinantly expressing the human P2RX2/X3 channel are maintained in DMEM F-12 (1:1) mixture (LONZA cat. n°: BE04-687F/U1) supplemented with 5 mL of 100 mM Sodium Pyruvate (LONZA cat. n° BE13-115E), 25 mL of 7.5% Sodium Bicarbonate (LONZA cat. n° BE17-613E), 6.5 mL of 1M Hepes (LONZA cat. n° BE17-737E), 5 mL of 100X Penicillin/Streptomycin mixture (LONZA cat. n° DE17-602E) and 50 mL of Fetal Bovine Serum (Sigma cat. n° F7524), 5 µg/mL Puromycin dihydrochloride (Sigma cat. n° P9620) and 1 mg/ml G418 disulfate salt (Sigma cat. n° G8168).
Cells were seeded into black-walled clear bottom 384 Multiwell plates at a density of 10.000 cells/well in complete medium. After 24 h the culture medium was replaced with 20 µL/well of Fluo-8 NoWash calcium sensitive dye (AAT Bioquest cat. n° 36316) diluted in Tyrode's buffer (Standard Tyrode's buffer: in house solution, 130 mM NaCl, 5 mM KCl, 2 mM CaCl2, 5 mM NaHCO3, 1 mM MgCl2, 20 mM HEPES, pH 7.4).
The plates were incubated for 1 hours at 37°C and injected with 10 µL/well of test compounds at 3X concentration in Tyrode's buffer with the […]. After 5 minutes a second injection of 15 µL/well of 10µM α,β-Met-ATP in Tyrode's buffer (α,β-Met-ATP: from Tocris cat. n° 3209) was performed and the signal of the emitted fluorescence was recorded by […] (Molecular Devices).
The selectivity is expressed as the ratio of IC50 of P2X2/3/ P2X3 receptors. Table 8: Human P2X3 and h-P2X2/3 receptor antagonist activity for selected compounds of the invention.

`COc1ccc(CN2C(=O)N3C(=NC(=O)C3C(C)(C)C)c3ncc(N4CCOCC4)cc32)cc1` (stereo not drawn) [Example 20, 3-tert-Butyl-6-[(4-methoxyphenyl)methyl] -8-(morpholin-4-yl)imidazo[1,2-c]pyrido[2,3-e]pyrimidine-2,5(3H,6H)-dione]: the IC50 on human P2X3 receptor was determined as 0.114 µM. For the same molecule, on human P2X2/3 receptor, the IC50 was 28.5 µM and the Selectivity stood at 249.

Take `CC(C)C1C(=O)N=C2c3ncc(N4CCC(O)CC4)cc3N(Cc3ccc(Cl)cc3)C(=O)N21` (stereo not drawn) [Example 26, 6-[(4-Chlorophenyl)methyl]-8-(4-hydroxypiperidin-1-yl)-3-(propan-2-yl)imidazo[1,2-c]pyrido[2,3-e]pyrimidine-2,5(3H,6H)-dione]: the figures for the IC50 at human P2X3 receptor and on human P2X2/3 receptor were 0.115 µM and more than 30 µM, respectively. Besides, on human P2X2/3 receptor, the Selectivity was more than 260.

As for `COc1ccc(Cn2c(=O)n3c(C(C)(C)C)nnc3c3ncc(N4CCNCC4)cc32)cc1` [Example 35, 3-tert-Butyl-6-[(4-methoxyphenyl)methyl] -8-(piperazin-1-yl)pyrido[2,3-e][1,2,4]triazolo[4,3-c]pyrimidin-5(6H)-one], the IC50 on human P2X3 receptor was 0.33 µM. For the same molecule, on human P2X2/3 receptor, the IC50 was more than 30 µM and the Selectivity was more than 90.

Consider `CC(C)(C)Cc1nnc2c3nnc(N4CCOCC4)cc3n(Cc3ccc(Cl)cc3)c(=O)n12` [Example 49, 6-[(4-Chlorophenyl)methyl]-3-(2,2-dimethylpropyl)-8-(morpholin-4-yl)[1,2,4]triazolo[4',3':1,6]pyrimido[5,4-c]pyridazin-5(6H)-one], for which the IC50 on human P2X3 receptor is 0.0195 µM; at human P2X2/3 receptor, more than 30 µM. Besides, on human P2X2/3 receptor, the Selectivity is given as more than 1500.

For the molecule `CC(C)C1CN2C(=O)N(CC(=O)Nc3ccc(F)cn3)c3cc(N4CCOCC4)cnc3C2=N1` (stereo not drawn) [Example 6, N-(5-Fluoropyridin-2-yl)-2-[8-(morpholin-4-yl)-5-oxo-2-(propan-2-yl)-2,3-dihydroimidazo[1,2-c]pyrido[2,3-e]pyrimidin-6(5H)-yl]acetamide], the IC50 at human P2X3 receptor came out at 0.0335 µM. For the same molecule, on human P2X2/3 receptor, the IC50 came out at 0.221 µM and the Selectivity was found to be 6.5.

Consider `CC(C)(CO)C1CN2C(=O)N(Cc3ccc(Cl)cc3)c3cc(N4CCOCC4)nnc3C2=N1` (stereo not drawn) [Example 17, 5-[(4-Chlorophenyl)methyl]-9-(1-hydroxy-2-methylpropan-2-yl)-3-(morpholin-4-yl)-8,9-dihydroimidazo[1',2':1,6]pyrimido[5,4-c]pyridazin-6(5H)-one], for which the IC50 on human P2X3 receptor came out at 0.0415 µM. For the same molecule, at human P2X2/3 receptor, the IC50 was more than 30 µM and the Selectivity was more than 722.

On to `COc1ccc(Cn2c(=O)n3c(C(C)(C)C)nnc3c3ncc(N4CCCCC4)cc32)cc1` [Example 38, 3-tert-Butyl-6-[(4-methoxyphenyl)methyl]-8-(piperidin-1-yl)pyrido[2,3-e][1,2,4]triazolo[4,3-c]pyrimidin-5(6H)-one], for which the IC50 at human P2X3 receptor was 0.0506 µM. Further, at human P2X2/3 receptor, the IC50 is 19.9 µM and the Selectivity is listed as more than 392.

Turning to `COc1ccc(Cn2c(=O)n3c(C(C)(C)C)nnc3c3ncc(N4CCOCC4)cc32)cc1` [Example 29, 3-tert-Butyl-6-(4-methoxybenzyl)-8-(morpholin-4-yl)pyrido[2,3-e][1,2,4]triazolo[4,3-c]pyrimidin-5(6H)-one], the IC50 on human P2X3 receptor is 0.0348 µM. For the same molecule, at human P2X2/3 receptor, the IC50 worked out at 19.7 µM and the Selectivity was found to be 566.

As for `CC(C)(C)c1nnc2c3ncc(N4CCOCC4)cc3n(Cc3ccc(Cl)cc3)c(=O)n12` [Example 30, 3-tert-Butyl-6-[(4-chlorophenyl)methyl]-8-(morpholin-4-yl)pyrido[2,3-e][1,2,4]triazolo[4,3-c]pyrimidin-5(6H)-one], the figures for the IC50 on human P2X3 receptor and on human P2X2/3 receptor were 0.0643 µM and more than 30 µM, respectively. Further, the Selectivity at human P2X2/3 receptor was more than 466.

Regarding `CC(C)(C)c1nnc2c3ncc(N4CC[C@@H](O)C4)cc3n(Cc3ccc(Cl)cc3)c(=O)n12` [Example 43, 3-tert-Butyl-6-[(4-chlorophenyl)methyl]-8-[(3R)-3-hydroxypyrrolidin-1-yl]pyrido[2,3-e][1,2,4]triazolo[4,3-c]pyrimidin-5(6H)-one], on human P2X3 receptor, the IC50 was found to be 0.0676 µM. In addition, on human P2X2/3 receptor, the IC50 was more than 30 µM and the Selectivity is reported as more than 444.
